For data set [1] the following is noted: CLP model mice, hydrogen gas treatment group; comparison value 74 mg/dL. On the procedure:
(§1) Cecal ligation and puncture (CLP) or sham surgery were performed on 9-week-old C57BL/6 male mice. Then, the CLP model mice were forced to inhale a 7% hydrogen gas. The inhalation time were two hours per day for one group and continuous 24 hours for the other group. The mice were housed in a chamber in which the concentration of a hydrogen gas could be maintained by a constant supply of a hydrogen gas from a gas generating apparatus (MHG-2000α manufactured by MiZ Company Limited), and forced to inhale the hydrogen gas therein. The mice in the control group were forced to inhale air not containing hydrogen. Mice were bred under a hydrogen gas atmosphere for one week, and the survival rate was evaluated. The serum inflammatory cytokine levels were evaluated using a Quantikine ELISA Kit (INFO) at 24 hours after CLP. The liver, the intestine, and the lung of mice were evaluated by RNA sequencing after inhalation of a hydrogen gas. Data were analyzed using Ingenuity Pathways Analysis (IPA: Qiagen Inc.). Additionally, expression of inflammatory genes in the intestine was investigated by RT-PCR.

The test system of another data set is IL-6. Conditions: 24 hours after CLP. On the procedure:
as §1

Another data set concerns TNF-α. Conditions: 24 hours after CLP. On the procedure:
as §1

Data set [2] relates to cecal ligation and puncture (CLP) model mice. On the procedure: as §1
The subject of data set [3] is genes related to glycolysis and gluconeogenesis; inflammatory signal transduction pathways. On the procedure:
as §1

The conditions of data set [4]: after inhalation of a hydrogen gas.
The conditions of data set [5]: room temperature, normal pressure; cited from earlier work.

Where two headings read alike, the source gives them in different places.

For the molecule `[HH]` [hydrogen gas, molecular hydrogen], in data set [1], the blood glucose level is given as 127 mg/dL. Moreover, the “serum IL-6 level” value in the data set with IL-6 is reported as “attenuated”. In the data set on TNF-α, the “serum TNF-α level” value is listed as “attenuated”. Besides, the survival rate in data set [2] (7% hydrogen gas, continuous inhalation over 24 hours for 7 days, control 40%, p<0.05, n=20 vs. 20) is reported as 75%; in data set [2] (continuous inhalation time increased to five hours, 12 hours, and 24 hours), “improved”. Further, the “survival rate vs control” value is “no difference from control was observed” in data set [2] (continuous inhalation time per day one hour) and “differences started to be observed” in data set [2] (continuous inhalation time two hours). The “change in levels of genes vs control” value in data set [3] (hydrogen inhalation time two hours or longer per day) is recorded as “differences started to be observed”. In data set [3] (liver and intestine of the CLP model at 24 hours), the “inflammatory signal transduction pathways (acute phase response signaling, STAT pathway), z-scores” value was “inactive”. In addition, in data set [3] (liver, GO and pathway enrichment analysis), the “genes related to glycolysis and gluconeogenesis” value is listed as “upregulation”. In addition, the “time for hydrogen to reach the liver” value in data set [4] is at least 10 min. Also, the “time for hydrogen to reach the lung” value in data set [4] is listed as “rapidly”. Besides, the “concentration dissolved in water (solubility)” value in data set [5] is recorded as “approximately 1.6 ppm”.

The record behind these values is patent US20210275577A1, “MOLECULAR HYDROGEN-CONTAINING COMPOSITION FOR REGULATING INTRACELLULAR SIGNAL TRANSDUCTION” (MiZ Company Limited, priority 2020, published 2021).
